Each molecule was assayed against A2A adenosine receptor (UniProt P29274) (assay: A2A radioligand binding assay (displacement of 3H-MSX-2)). Conditions: displacement of 2 nM 3H-MSX-2 from 15 ug A2A membrane, 23° C., 2 hours.
Design: species or system human
Description: A tritiated adenosine A2A antagonist, 3-(3-hydroxypropyl)-7-methyl-8-(m-methoxystyryl)-1-propargylxanthine, (3H-MSX-2, specific activity: 80 Ci/mmol), was purchased from American Radiolabeled Chemicals, Inc (St. Louis, Mo.). A tritiated adenosine A1 antagonist, 1,3-Dipropyl-8-cyclopentylxanthine ([^3H]DPCPX, specific activity: 120 Ci/mmol) was purchased from Perkin Elmer (Boston, Mass.). A tritiated adenosine A2a antagonist, 4-(2-[7-amino-2-(2-furyl)[1,2,4]triazolo[2,3-a][1,3,5]triazin-5-ylamino]ethyl)phenol ([^3H]ZM241385 specific activity: 27.4 Ci/mmol) was purchased from American Radiolabeled Chemicals, Inc (St. Louis, Mo.). Adenosine Deaminase (ADA) was purchased from Roche Molecular Biochemicals (Nutley, N.J.). GTP was purchased from Sigma. Concentrated stock solution (10 mM) of compounds was dissolved in dimethylsulfoxide (DMSO), stored at −20° C., and diluted in Tris-EDTA buffer (50 mM Tris and 1 mM EDTA, 10 mM MgCl2, pH 7.4) for use in experiments. The final content of dimethylsulfoxide in Tris-EDTA buffer during experiments was not more than 1%. Male Sprague Dawley rats, weighted 250-400 g, 8-10 weeks old, were purchased from Charles River Labs (Wilmington, Mass.).
HEK293 (Human Embryonic Kidney 293) cells stably expressing human A2A adenosine receptor or human A2B adenosine receptor were maintained in DMEM supplemented with 10% fetal bovine serum, 2 mM L-glutamine, 100 IU/ml penicillin, 50 μg/ml streptomycin and 2 μg/ml puromycin. CHO (Chinese Hamster Ovary) cells stably expressing human A1 adenosine receptor or human A3 adenosine receptor were maintained in F12K medium supplemented with 10% fetal bovine serum, 2 mM L-glutamine, 100 IU penicillin, 50 μg streptomycin and 8 μg/ml puromycin. PC12 (rat pheochromocytoma) cells were cultured in F12K medium supplemented with 10% horse serum and 2.5% fetal bovine serum, 2 mM L-glutamine, 100 IU/ml penicillin, and 50 μg/ml streptomycin. All cells were maintained at 37° C. in a humidified 5% CO2/95% air incubator and recultivated 2 times per week.
Cultured cells in 150 mm^2 dishes were washed once with PBS, detached by scrapping, collected with buffer A (10 mM HEPES, 10 mM EDTA, pH 7.4) containing protease inhibitor cocktail. Cells were then homogenized by a handheld homogenizer at a speed of 4.5 for 1 min. The homogenate was centrifuged by a Beckman ultracentrifuge at a speed of 29,000 × g for 15 min. The pellets were resuspended in buffer HE (10 mM HEPES, 1 mM EDTA, pH 7.4, with protease inhibitor cocktail), centrifuged again at 29,000 × g for 15 min. The crude membrane was resuspended using buffer HE, and protein concentration was measured by the method of Lowery with BSA as standard. Similar procedures were used for membrane preparation for fresh rat tissues. All experimental procedures were done at 4° C. Membranes were aliquot and kept at −80° C.
The binding assays utilized 15 ug of A2A membrane (human recombinant A2A membrane, rat striatal membrane, or PC 12 cell membrane) that had been treated with adenosine deaminase and 50 mM Tris-EDTA buffer (pH=7.4) followed by mixing 2 μL of serially diluted DMSO stock solution of the compounds of this invention at concentrations ranging from 10 μM to 0.1 nM or the control received 2 μL of DMSO alone, then the tritiated antagonist 3-(3-hydroxypropyl)-7-methyl-8-(m-methoxystyryl)-1-propargylxanthine (^3H-MSX-2) in Tris-EDTA buffer (50 mM Tris, 1 mM EDTA, 10 mM MgCl2, pH of 7.4) was added to achieve a final concentration of 2 nM. After incubation at 23° C. for 2 hours, the solutions were filtered using a membrane harvester with multiple washing of the membranes (3×). The filter plates were counted in scintillation cocktail affording the amount of displacement ^3H-MSX-2 by the competitive binding compositions of this invention. Radioligand binding data was analyzed using GraphPad Prism version 4.0 (San Diego, Calif.). […]
In the case of `CCn1c(=O)[nH]c2sc(-c3cccnc3OC)c(C)c2c1=O` [LV, 3-ethyl-6-(2-methoxy(3-pyridyl))-5-methyl-1,3-dihydrothiopheno[2,3-d]pyrimidine-2,4-dione], the Ki is reported as 529 nM. Molecule `CCn1c(=O)[nH]c2sc(-c3ccc[nH]3)c(C)c2c1=O` [XXVII, 3-ethyl-5-methyl-6-pyrrol-2-yl-1,3-dihydrothiopheno[2,3-d]pyrimidine-2,4-dione] has a Ki of 180 nM. `CCn1c(=O)[nH]c2sc(-c3cc(C)cs3)c(C)c2c1=O` [XXXI, 3-ethyl-5-methyl-6-(4-methyl(2-thienyl))-1,3-dihydrothiopheno[2,3-d]pyrimidine-2,4-dione] was tested, and the Ki was 150 nM. Work on `CCn1c(=O)c2c(-c3ccc(C)o3)csc2n(C)c1=O` [XXII, 3-ethyl-1-methyl-5-(5-methyl(2-furyl))-1,3-dihydrothiopheno[2,3-d]pyrimidine-2,4-dione] yielded a Ki of 896 nM. Molecule `CCn1c(=O)[nH]c2sc(C)c(C)c2c1=O` [XVI, 3-ethyl-5,6-dimethyl-1,3-dihydrothiopheno[2,3-d]pyrimidine-2,4-dione] has a Ki of 699 nM. `CC[C@H]1COC(c2sc3[nH]c(=O)n(CC(C)C)c(=O)c3c2C)=N1` [LVI, 6-((4S)-4-ethyl(1,3-oxazolin-2-yl))-5-methyl-3-(2-methylpropyl)-1,3-dihydrothiopheno[2,3-d]pyrimidine-2,4-dione] gave a Ki of 58 nM. Work on `CCn1c(=O)[nH]c2sc3c(c2c1=O)CCCC3` [XI, 3-ethyl-1,3,5,6,7,8-hexahydrobenzo[b]thiopheno[2,3-d]pyrimidine-2,4-dione] yielded a Ki of 458 nM. Molecule `CCn1c(=O)[nH]c2sc(-c3cccs3)c(C)c2c1=O` [III, 3-ethyl-5-methyl-6-(2-thienyl)-1,3-dihydrothiopheno[2,3-d]pyrimidine-2,4-dione] has a Ki of 97 nM. `CCn1c(=O)c2c(C)c(-c3cc(C)cs3)sc2n(C)c1=O` [XLVII, 3-ethyl-1,5-dimethyl-6-(4-methyl(2-thienyl))-1,3-dihydrothiopheno[2,3-d]pyrimidine-2,4-dione] gave a Ki of 524 nM. `CCn1c(=O)[nH]c2sc(-c3ccsc3)c(C)c2c1=O` [XII, 3-ethyl-5-methyl-6-(3-thienyl)-1,3-dihydrothiopheno[2,3-d]pyrimidine-2,4-dione] was tested, and the Ki was 559 nM. `Cc1c(C2=NCCO2)sc2[nH]c(=O)n(CC(C)C)c(=O)c12` [XXVIII, 5-methyl-3-(2-methylpropyl)-6-(1,3-oxazolin-2-yl)-1,3-dihydrothiopheno[2,3-d]pyrimidine-2,4-dione] was tested, and the Ki was 137 nM. `Cc1csc2[nH]c(=O)n(CC(C)C)c(=O)c12` [XIX, 5-methyl-3-(2-methylpropyl)-1,3-dihydrothiopheno[2,3-d]pyrimidine-2,4-dione] showed a Ki of 780 nM. With `CCCn1c(=O)[nH]c2sc(C3=N[C@@H](C)CO3)c(C)c2c1=O` [XLV, 6-((4S)-4-methyl(1,3-oxazolin-2-yl))-5-methyl-3-propyl-1,3-dihydrothiopheno[2,3-d]pyrimidine-2,4-dione] the Ki was 95 nM. With `CCn1c(=O)c2c(C)c(-c3ccoc3)sc2n(C)c1=O` [XLVI, 3-ethyl-6-(3-furyl)-1,5-dimethyl-1,3-dihydrothiopheno[2,3-d]pyrimidine-2,4-dione] the Ki was 546 nM. `CCn1c(=O)c2c(C)c(-c3ccco3)sc2n(C)c1=O` [XXXIX, 3-ethyl-6-(2-furyl)-1,5-dimethyl-1,3-dihydrothiopheno[2,3-d]pyrimidine-2,4-dione] gave a Ki of 250 nM. With `C#CCn1c(=O)[nH]c2scc(C)c2c1=O` [IX, 5-methyl-3-prop-2-ynyl-1,3-dihydrothiopheno[2,3-d]pyrimidine-2,4-dione] the Ki was 365 nM. `CCn1c(=O)[nH]c2sc(C3=NCCO3)c(C)c2c1=O` [VII, 3-ethyl-5-methyl-6-(1,3-oxazolin-2-yl)-1,3-dihydrothiopheno[2,3-d]pyrimidine-2,4-dione] was tested, and the Ki was 152 nM. Work on `CCn1c(=O)c2c(C)c(-c3nccs3)sc2n(C)c1=O` [XLVIII, 3-ethyl-1,5-dimethyl-6-(1,3-thiazol-2-yl)-1,3-dihydrothiopheno[2,3-d]pyrimidine-2,4-dione] yielded a Ki of 199 nM. For `CCn1c(=O)[nH]c2sc(-c3sccc3C)c(C)c2c1=O` [XXXII, 3-ethyl-5-methyl-6-(3-methyl(2-thienyl))-1,3-dihydrothiopheno[2,3-d]pyrimidine-2,4-dione], the Ki was 110 nM. Work on `Cc1csc2[nH]c(=O)n(C)c(=O)c12` [XIII, 3,5-dimethyl-1,3-dihydrothiopheno[2,3-d]pyrimidine-2,4-dione] yielded a Ki of 648 nM. With `CCn1c(=O)[nH]c2sc(-c3nc(Cc4ccccc4)no3)c(C)c2c1=O` [XX, 3-ethyl-5-methyl-6-[3-benzyl(1,2,4-oxadiazol-5-yl)]-1,3-dihydrothiopheno[2,3-d]pyrimidine-2,4-dione] the Ki was 805 nM. Molecule `CCn1c(=O)[nH]c2scc(C)c2c1=O` [X, 3-ethyl-5-methyl-1,3-dihydrothiopheno[2,3-d]pyrimidine-2,4-dione] has a Ki of 397 nM. `CCn1c(=O)[nH]c2sc(-c3ccco3)c(C)c2c1=O` [IV, 3-ethyl-6-(2-furyl)-5-methyl-1,3-dihydrothiopheno[2,3-d]pyrimidine-2,4-dione] gave a Ki of 105 nM. For `CCn1c(=O)[nH]c2sc(-c3ccccn3)c(C)c2c1=O` [XXXVIII, 3-ethyl-5-methyl-6-(2-pyridyl)-1,3-dihydrothiopheno[2,3-d]pyrimidine-2,4-dione], the Ki was 120 nM. Work on `Cc1c(-c2cccs2)sc2[nH]c(=O)n(C)c(=O)c12` [XXXIII, 3,5-dimethyl-6-(2-thienyl)-1,3-dihydrothiopheno[2,3-d]pyrimidine-2,4-dione] yielded a Ki of 150 nM. `Cc1c(-c2ccoc2)sc2[nH]c(=O)n(CC(C)C)c(=O)c12` [XXX, 6-(3-furyl)-5-methyl-3-(2-methylpropyl)-1,3-dihydrothiopheno[2,3-d]pyrimidine-2,4-dione] showed a Ki of 158 nM. `CCn1c(=O)[nH]c2sc(C(=O)N[C@H](C)CO)c(C)c2c1=O` [XLII, N—((1R)-2-hydroxy-isopropyl)(3-ethyl-5-methyl-2,4-dioxo(1,3-dihydrothiopheno[2,3-d]pyrimidin-6-yl))carboxamide] was tested, and the Ki was 769 nM. With `CCn1c(=O)[nH]c2scc(-c3ccco3)c2c1=O` [VI, 3-ethyl-5-(2-furyl)-1,3-dihydrothiopheno[2,3-d]pyrimidine-2,4-dione] the Ki was 137 nM. `C#CCn1c(=O)[nH]c2sc(C(=O)OCC)c(C)c2c1=O` [XXV, ethyl 5-methyl-2,4-dioxo-3-prop-2-ynyl-1,3-dihydrothiopheno[2,3-d]pyrimidine-6-carboxylate] showed a Ki of 300 nM. `CCn1c(=O)[nH]c2sc(-c3ccc(OC)nc3)c(C)c2c1=O` [LIV, 3-ethyl-6-(6-methoxy(3-pyridyl))-5-methyl-1,3-dihydrothiopheno[2,3-d]pyrimidine-2,4-dione] gave a Ki of 406 nM. Work on `CCn1c(=O)[nH]c2sc(-c3ncco3)c(C)c2c1=O` [V, 3-ethyl-5-methyl-6-(1,3-oxazol-2-yl)-1,3-dihydrothiopheno[2,3-d]pyrimidine-2,4-dione] yielded a Ki of 134 nM. In the case of `Cc1c(-c2ccco2)sc2[nH]c(=O)n(CC3CC3)c(=O)c12` [XXXVI, 3-(cyclopropylmethyl)-5-methyl-6-(2-furyl)-1,3-dihydrothiopheno[2,3-d]pyrimidine-2,4-dione], the Ki is reported as 170 nM. Work on `CCn1c(=O)[nH]c2sc(C(=O)NC)c(C)c2c1=O` [XV, (3-ethyl-5-methyl-2,4-dioxo(1,3-dihydrothiopheno[2,3-d]pyrimidin-6-yl))-n-methylcarboxamide] yielded a Ki of 676 nM. `Cc1c(-c2ccco2)sc2[nH]c(=O)n(CC(C)C)c(=O)c12` [Example I, 6-(2-furyl)-5-methyl-3-(2-methylpropyl)-1,3-dihydrothiopheno[2,3-d]pyrimidine-2,4-dione] was tested, and the Ki was 76 nM.
